Here are results for three molecules from paper PMC5604080, “Genetic and Biochemical Characterization of 2-Chloro-5-Nitrophenol Degradation in a Newly Isolated Bacterium, Cupriavidus sp. Strain CNP-8” (Frontiers in Microbiology, 2017).

One data set addresses T1, MnpC (H6-MnpC) (Cupriavidus sp. CNP-8, UniProt A0A291LMA7).
T1 construct: full-length, pET-28a NdeI-XhoI, His6-tagged (H6-MnpC), E. coli Rosetta(DE3)pLysS, Ni-NTA purified, about 35 kDa, single-subunit dioxygenase
T1 sequence (A0A291LMA7 1-316): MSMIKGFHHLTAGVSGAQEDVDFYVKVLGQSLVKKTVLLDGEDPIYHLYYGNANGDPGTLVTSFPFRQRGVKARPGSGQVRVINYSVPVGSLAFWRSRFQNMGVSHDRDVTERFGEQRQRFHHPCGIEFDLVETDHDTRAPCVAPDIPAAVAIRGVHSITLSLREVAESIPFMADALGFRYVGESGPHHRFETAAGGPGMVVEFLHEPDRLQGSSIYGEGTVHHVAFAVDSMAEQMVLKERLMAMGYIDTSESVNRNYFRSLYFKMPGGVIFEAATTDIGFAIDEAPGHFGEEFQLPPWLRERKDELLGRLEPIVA
Put plainly: spectrophotometric turnover, product with λmax […] nm. The note with it: structure analog used in place of unstable aminohydroquinone. The format is biochemical.

The next data set relates to O=[N+]([O-])c1cccc(O)c1. The experiment in a line: purified protein. The note with it: 0.2 mM NADPH, 50 mM phosphate pH 7.5. The format is biochemical, Cupriavidus sp. CNP-8.
Data set [1] relates to O=[N+]([O-])c1ccc(Cl)c(O)c1. Put plainly: purified protein. Format: biochemical, Cupriavidus sp. CNP-8. The note with it: 0.2 mM NADPH, 50 mM phosphate pH 7.5.

Take `Oc1ccc(O)c(Cl)c1` [chlorohydroquinone]: at MnpC (H6-MnpC), the “spectrophotometric turnover, product with λmax 320 nm” value was “H6-MnpC catalyzed rapid degradation of both CHQ and HQ”.

For `Oc1ccc(O)cc1` [hydroquinone], the “spectrophotometric turnover, product with λmax 320 nm” value on MnpC (H6-MnpC) was “H6-MnpC catalyzed rapid degradation of both CHQ and HQ”.

The term Km denotes the concentration of substrate that gives half-maximal velocity. In the case of MnpA (H6-MnpA) (Cupriavidus sp. CNP-8), the values for the Km (in the data set on O=[N+]([O-])c1cccc(O)c1; in data set [1]) were 3.4 ± 1.63 µM and 16.3 ± 2.87 µM, respectively.
